# Activity calls are given as the source filed them. No cut-off for these calls is given here.
# What was measured:
# Plasmodium berghei [1] = experiment: Antimalarial activity against Plasmodium berghei infected in mouse assessed as reduction in parasitemia; type: functional; conditions: Plasmodium berghei
# Plasmodium falciparum [2] = experiment: Antiplasmodial activity against Plasmodium falciparum K1; type: functional, organism-based; conditions: Plasmodium falciparum, K1
# Plasmodium yoelii = experiment: Antimalarial activity against Plasmodium yoelii infected in swiss mouse assessed as reduction in parasitemia at 96 mg/kg, po relative to control; type: functional; design: scale not given: the % may be the effect or the level left
# Plasmodium falciparum [3] = experiment: Potency index, ratio of artesunate IC50 to test compound IC50 for antiplasmodial activity against Plasmodium falciparum gametocytes by [3H]hypoxanthine incorporation assay; type: functional
# Plasmodium falciparum [4] = experiment: Potency index, ratio of mefloquine IC50 to test compound IC50 for antiplasmodial activity against Plasmodium falciparum gametocytes by [3H]hypoxanthine incorporation assay; type: functional
# Plasmodium falciparum [5] = experiment: Antiplasmodial activity against Plasmodium falciparum gametocytes assessed as inhibition of gametocyte activation by [3H]hypoxanthine incorporation assay; type: functional, organism-based
# Plasmodium falciparum [6] = experiment: Antiplasmodial activity against Plasmodium falciparum gametocytes by [3H]hypoxanthine incorporation assay; type: functional, organism-based
# Plasmodium berghei [7] = experiment: Antimalarial activity against Plasmodium berghei KBG 173 infected in ICR mouse assessed as animal survival at 320 mg/kg/day, po qd administered 3 to 5 days post infection; type: functional, organism-based; conditions: time 3-5 day
# Plasmodium berghei [8] = experiment: Antimalarial activity against Plasmodium berghei KBG 173 infected in ICR mouse assessed as animal survival at 80 mg/kg/day, po qd administered 3 to 5 days post infection; type: functional, organism-based; conditions: time 3-5 day
# Plasmodium berghei [9] = experiment: Antimalarial activity against Plasmodium berghei KBG 173 infected in ICR mouse assessed as animal survival at 20 mg/kg/day, po qd administered 3 to 5 days post infection; type: functional, organism-based; conditions: time 3-5 day
# Plasmodium berghei [10] = experiment: Antimalarial activity against Plasmodium berghei KBG 173 infected in ICR mouse assessed as survival time at 320 mg/kg/day, po qd administered 3 to 5 days post infection; type: functional; conditions: time 3-5 day
# Plasmodium berghei [11] = experiment: Antimalarial activity against Plasmodium berghei KBG 173 infected in ICR mouse assessed as survival time at 80 mg/kg/day, po qd administered 3 to 5 days post infection; type: functional; conditions: time 3-5 day
# Plasmodium berghei [12] = experiment: Antimalarial activity against Plasmodium berghei KBG 173 infected in ICR mouse assessed as survival time at 20 mg/kg/day, po qd administered 3 to 5 days post infection; type: functional; conditions: time 3-5 day
# Plasmodium falciparum [13] = experiment: Antiplasmodial activity against Plasmodium falciparum W2; type: functional, organism-based
# Plasmodium falciparum [14] = experiment: Antiplasmodial activity against Plasmodium falciparum D6; type: functional, organism-based
# Plasmodium falciparum [15] = experiment: Selectivity ratio of IC50 for antiplasmodial activity against Plasmodium falciparum W2 to IC50 for antiplasmodial activity against Plasmodium falciparum D6; type: functional
# Plasmodium falciparum [16] = experiment: Antiplasmodial activity against Plasmodium falciparum; type: functional, organism-based
# Plasmodium falciparum [17] = experiment: Antimalarial activity against chloroquine resistant Plasmodium falciparum FcB1; type: functional, organism-based
# Plasmodium falciparum [18] = experiment: Antiplasmodial activity against Plasmodium falciparum FcM29; type: functional, organism-based
# Plasmodium falciparum [19] = experiment: Antimalarial activity against chloroquine resistant Plasmodium falciparum FcB1 Colombia; type: functional, organism-based
# Plasmodium falciparum [20] = experiment: Antimalarial activity against chloroquine resistant Plasmodium falciparum FcR3 Gambia; type: functional, organism-based
# Plasmodium falciparum [21] = experiment: Antimalarial activity against chloroquine resistant Plasmodium falciparum PaloAlto; type: functional, organism-based
# Plasmodium falciparum [22] = experiment: Antimalarial activity against chloroquine resistant Plasmodium falciparum W2; type: functional, organism-based
# Plasmodium falciparum [23] = experiment: Antimalarial activity against chloroquine resistant Plasmodium falciparum FcM29 Cameron; type: functional, organism-based
# Plasmodium falciparum [24] = experiment: Antimalarial activity against chloroquine sensitive Plasmodium falciparum D6; type: functional, organism-based
# Plasmodium falciparum [25] = experiment: Antimalarial activity against chloroquine sensitive Plasmodium falciparum F32; type: functional, organism-based
# Plasmodium vinckei = experiment: Antimalarial activity against chloroquine resistant Plasmodium vinckei infected in po dosed swiss mouse assessed as reduction in parasitemia; type: functional
# [26] = test system: Plasmodium vinckei petteri; experiment: Antimalarial activity against chloroquine sensitive Plasmodium vinckei petteri infected in po dosed swiss mouse assessed as reduction in parasitemia; type: functional
# Plasmodium falciparum [27] = experiment: Antimalarial activity against erythrocytic stage chloroquine sensitive Plasmodium falciparum W2 infected in mouse assessed as reduction in parasitemia at 32 mg/kg/day, po qd measured after 4 days by Giemsa staining based analysis relative to control; type: functional; design: scale not given: the % may be the effect or the level left; conditions: time 4 day
# Plasmodium falciparum [28] = experiment: Antimalarial activity against erythrocytic stage chloroquine sensitive Plasmodium falciparum 3D7 infected in mouse assessed as reduction in parasitemia at 63 mg/kg/day, po qd measured after 4 days by Giemsa staining based analysis relative to control; type: functional; design: scale not given: the % may be the effect or the level left; conditions: time 4 day
# Plasmodium falciparum [29] = experiment: Antimalarial activity against erythrocytic stage chloroquine sensitive Plasmodium falciparum W2 infected in mouse assessed as reduction in parasitemia at 63 mg/kg/day, po qd measured after 4 days by Giemsa staining based analysis; type: functional; design: scale not given: the % may be the effect or the level left; conditions: time 4 day
# Plasmodium falciparum [30] = experiment: Antiplasmodial activity against chloroquine resistant Plasmodium falciparum by HRP2 ELISA analysis; type: functional, organism-based
# Plasmodium falciparum [31] = experiment: Antiplasmodial activity against Plasmodium falciparum 3D7; type: functional, organism-based; conditions: read-out: ED50 (the source's name)
# Plasmodium chabaudi = experiment: Antiplasmodial activity against Plasmodium chabaudi infected in mouse assessed as survival rate relative to control; type: functional
compound,measurement,setting,value
C[C@@H]1CC[C@H]2[C@@H](C)C(CCN3CCN(c4ccc(C(F)(F)F)cc4)CC3)O[C@@H]3O[C@]4(C)CC[C@@H]1[C@]32OO4 (stereo partly drawn),ED50,Plasmodium berghei [1],6 mg/kg
same,IC50,Plasmodium falciparum [2],6.19 nM
C=C(c1ccccc1)C1COC2(CCC(NCCCCNc3ccnc4cc(Cl)ccc34)CC2)OO1 (stereo not drawn),Activity,Plasmodium yoelii,89%
C=C(c1ccccc1)C1COC2(CCC(NCCNc3ccnc4cc(Cl)ccc34)CC2)OO1 (stereo not drawn),Activity,Plasmodium yoelii,89%
C[C@H]1[C@@H](OC(=O)CCC(=O)O)O[C@@H]2C[C@@]3(C)CC[C@H]4[C@H](C)CC[C@@H]1[C@@]24OO3.FC(F)(F)c1ccc2c(CC3CCCCN3)c3cccc(C(F)(F)F)c3nc2c1 (stereo not drawn),Ratio,Plasmodium falciparum [3],15
same,Ratio,Plasmodium falciparum [4],280
same,IC50,Plasmodium falciparum [5],20 µM
same,IC50,Plasmodium falciparum [6],4.6 mM
Clc1ccc2c(NCCNCC3CCC4(CC3)OOC3(CCCCC3)OO4)ccnc2c1,Activity,Plasmodium berghei [7],Active
same,Activity,Plasmodium berghei [8],Active
same,Activity,Plasmodium berghei [9],inactive
same,Time,Plasmodium berghei [10],>31 days
same,Time,Plasmodium berghei [11],26.4 days
same,Time,Plasmodium berghei [12],15.8 days
Cc1cccc(C)c1Nc1nc(OCc2cn(CCCNc3ccnc4cc(Cl)ccc34)nn2)nc(N(C)C)n1,IC50,Plasmodium falciparum [13],730 nM
same,IC50,Plasmodium falciparum [14],580 nM
same,Ratio IC50,Plasmodium falciparum [15],>11.1
C=C(c1ccccc1)C1COC2(CCC(NCCCNc3ccnc4cc(Cl)ccc34)CC2)OO1 (stereo not drawn),Activity,Plasmodium yoelii,89%
CC(C)C1=C[C@H]2OC3(CCC(NCCNc4ccnc5cc(Cl)ccc45)CC3)OO[C@@]2(C)CC1 (stereo partly drawn),IC50,Plasmodium falciparum [16],9 nM
same,IC50,Plasmodium falciparum [17],6 nM
same,IC50,Plasmodium falciparum [18],21 nM
CC1(C)COC(C2CCC(NC3CCC(Nc4ccnc5cc(Cl)ccc45)CC3)CC2)OO1 (stereo not drawn),IC50,Plasmodium falciparum [19],24 nM
same,IC50,Plasmodium falciparum [20],12 nM
same,IC50,Plasmodium falciparum [21],15 nM
same,IC50,Plasmodium falciparum [22],15 nM
same,IC50,Plasmodium falciparum [23],10 nM
same,IC50,Plasmodium falciparum [24],7 nM
same,IC50,Plasmodium falciparum [25],13 nM
same,ED100,Plasmodium vinckei,30 mg/kg/day
same,ED100,[26],32 mg/kg/day
same,Activity,Plasmodium falciparum [27],77%
same,Activity,Plasmodium falciparum [28],100%
same,Activity,Plasmodium falciparum [29],96%
same,IC50,Plasmodium falciparum [30],19.8 nM
same,IC90,Plasmodium falciparum [30],29.3 nM
same,IC99,Plasmodium falciparum [30],0.0448 µM
same,MIC,Plasmodium falciparum [30],0.0472 µM
C[C@@H]1CC[C@H]2[C@@H](C)C(CCc3ccc(C(=O)O)cc3)O[C@@H]3O[C@]4(C)CC[C@@H]1[C@]32OO4 (stereo partly drawn),EC50,Plasmodium falciparum [31],1.1 ng/mL
same,EC50,Plasmodium falciparum [2]; read-out: ED50 (the source's name),0.6 ng/mL
same,Survival,Plasmodium chabaudi,100%
Cc1cccc(C)c1Nc1nc(OCc2cn(CCNc3ccnc4cc(Cl)ccc34)nn2)nc(N(C)C)n1,IC50,Plasmodium falciparum [13],1690 nM
same,IC50,Plasmodium falciparum [14],980 nM
same,Ratio IC50,Plasmodium falciparum [15],>5.6
